Read-outs that look alike come from different tables or passages of the source.
How the values were obtained:
[1] = Thermodynamic solubility in FaSSIF; format: physicochemical; details: thermodynamic from solid, room temperature, 24 hours shaking
Protocol: After shaking, the samples were centrifuged at 25° C. for 20 minutes at 4000 rpm. Filtrates were prepared using the Whatman Mini-UniPrep Syringeless Filter Device (PTFE filter media with polypropylene housing, pore size 0.45 μm) from Cytiva, and dilutions were performed as required. Quantification of all samples was carried out using an LC-UV system.

[2] = Pharmacokinetics in the rat, dosing in solution; details: in vivo, solution, 25 mg/Kg nominal, fasted male SD rat
[3] = Pharmacokinetics in the rat, solid form (powder in mini-capsules); format: in vivo
log P = format: physicochemical
[4] = system: wild-type mice fed a high fat diet; test: Genistein in wild-type mice fed a high fat diet; format: in vivo, mouse; details: high fat diet 12 weeks, then intraperitoneal 200 mg/Kg genistein in corn oil for 14 days
[5] = system: Db/Db mice fed a high fat diet; test: Genistein in Db/Db mice fed a high fat diet; format: in vivo, mouse; details: high fat diet 6 weeks, then oral gavage 50 mg/Kg genistein in corn oil for 47 days
[6] = target: G protein-coupled estrogen receptor (Homo sapiens, UniProt Q99527); details: cited from earlier work
[7] = target: transthyretin tetramer (TTR) (Homo sapiens, UniProt P02766); details: Green et al.; cited from earlier work
[8] = system: transthyretin tetramer (TTR); details: Green et al.; cited from earlier work
[9] = system: rat model of monocrotaline-induced pulmonary hypertension; details: Matori et al.; cited from earlier work
mdx mice = details: Messina et al., cited from earlier work
[10] = system: mice with L-arginine induced acute pancreatitis; details: Siriviriyakul et al., cited from earlier work
[11] = system: rats with cerulein (AEP) or sodium taurocholate (ANP) induced pancreatitis; details: Xia et al.; cited from earlier work
[12] = system: children with Sanfillipo syndrome; details: 160 mg/kg/day for 12 months, median age 7.2 years; cited from earlier work
[13] = system: patients with bladder cancer; details: 300 and 600 mg daily for 21 days; cited from earlier work
healthy volunteers = details: amorphous solid dispersion, single doses 500 to 3000 mg, then 3000 mg over six consecutive days; cited from earlier work
postmenopausal women = details: 54 mg per day, cited from earlier work
[14] = solid form, genistein 71 mg/Kg together with 14.2 mg/Kg inulin

G protein-coupled estrogen receptor, sequence (Q99527 whole entry): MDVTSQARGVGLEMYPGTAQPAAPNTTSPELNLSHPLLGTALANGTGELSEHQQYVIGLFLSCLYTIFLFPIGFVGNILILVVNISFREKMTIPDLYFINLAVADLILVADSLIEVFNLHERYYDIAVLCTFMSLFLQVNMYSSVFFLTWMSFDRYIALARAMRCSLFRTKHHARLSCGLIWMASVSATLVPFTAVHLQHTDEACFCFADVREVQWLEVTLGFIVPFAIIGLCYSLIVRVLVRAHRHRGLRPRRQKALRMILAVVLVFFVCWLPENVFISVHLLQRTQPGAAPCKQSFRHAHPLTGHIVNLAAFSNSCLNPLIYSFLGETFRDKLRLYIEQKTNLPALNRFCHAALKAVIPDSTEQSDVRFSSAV

Compound: O=c1c(-c2ccc(O)cc2)coc2cc(O)cc(O)c12 [Genistein, 5,7-dihydroxy-3-(4-hydroxyphenyl)-4H-chromen-4-one]
- solubility at 24 h ([1]; read-out: Solubility): 27 µM
- solubility at 24 h ([1]; read-out: Solubility (μg/mL)): 7.29 µg/mL
- AUC(0-t) ([2]; read-out: mean AUC0-last of dosed compound in plasma): ~500 ng·h/mL
- Cmax ([2]; read-out: mean cmax of dosed compound in plasma): ~300 ng/mL
- half-life ([2]; read-out: mean t1/2 of dosed compound in plasma (converted)): ~1.3 h
- Tmax ([2]; read-out: mean tmax of dosed compound in plasma (converted)): 0.167 h
- AUC(0-t) ([3]; male, SD, rat, in vivo, po, 71 mg/kg, solid form, genistein 71 mg/Kg alone, considerable variability, read-out: mean AUC0-last of dosed compound in plasma): ~500 ng·h/mL
- AUC(0-t) ([3]; male, SD, rat, in vivo, po, 71 mg/kg, solid form, genistein 71 mg/Kg together with 14.2 mg/Kg inulin, read-out: mean AUC0-last with addition of inulin): ~300 ng·h/mL
- Cmax ([3]; male, SD, rat, in vivo, po, 71 mg/kg, read-out: mean cmax of dosed compound in plasma): ~160 ng/mL
- Tmax ([3]; male, SD, rat, in vivo, po, 71 mg/kg, read-out: mean tmax of dosed compound in plasma): ~3 h
- half-life ([3]; male, SD, rat, in vivo, po, read-out: mean t1/2 of dosed compound in plasma (converted)): ~2 h
- effect of inulin on the peak [3, 14]: slightly reducing
- time of peak with addition of inulin [3, 14]: around 5 hours
- logP (log P): 3.04
- reduction of fasting blood glucose [4]: ~30%
- reduction of HbA1C [5]: ~37%
- reduction of fasting blood glucose [5]: ~57%
- affinity, agonist of G protein-coupled estrogen receptor [6]: 133 nM
- acid-mediated fibril formation, of that exhibited by TTR alone [7]: < 10%
- binding to TTR in plasma over all of the other plasma proteins [7]: highly selective binding
- amyloidogenesis of TTR mutations V30M and V122I [8]: inhibits
- monocrotaline-induced preexisting PH [9]: reversed
- progression of severe PH to right heart failure [9]: prevented
- right ventricular ejection fraction [9]: restoring
- right ventricular pressure [9]: reducing
- markers of oxidative stress (mdx mice): reduced
- muscle necrosis (mdx mice): reduced
- muscle regeneration (mdx mice): enhanced
- serum creatine-kinase levels (mdx mice): reduced
- forelimb strength and strength normalized to weight (mdx mice; five-week old mdx mice, five weeks, daily or 3-times/week): increased
- edema, necrosis and cell death induced by L-arginine ([10]; 10 mg/Kg/day and 100 mg/Kg/day): significantly reducing
- serum amylase, IL-6 and CRP levels ([10]; 10 mg/Kg/day and 100 mg/Kg/day): significantly reduced
- NF-κB and 4-HNE expression [10]: curbing
- necrosis, edema and inflammatory infiltration compared to the experimental models [11]: mitigated
- adverse effects [12]: No treatment-specific severe adverse effects were reported
- tolerability [13]: well tolerated, with no to mild side effects
- adverse effects (healthy volunteers): No significant adverse effects were reported, other than instances of diarrhea, headache or nausea at the highest dosages
- bone mineral density at femoral neck and lumbar spine (postmenopausal women; after 36 months): greater increases
- mammographic breast density, endometrial thickness, expression of BRCA1 and BRCA2 (postmenopausal women; after 36 months): no significant changes
- sister chromatid exchange compared to placebo (postmenopausal women; after 36 months): reducing
- discomfort or adverse events between participants (postmenopausal women): No differences

Source: US20250170154A1 (GreenStone Biosciences, Inc., priority 2023, published 2025)
